Assay results from patent publication US20230382915A1, “GCN2 AND PERK KINASE INHIBITORS AND METHODS OF USE THEREOF” (Deciphera Pharmaceuticals, LLC, priority 2021, published 2023).

How the values were obtained:
[1] = system: H2030 solid tumor spheroids; experiment: Spheroid proliferation assay, H2030; assay type: cell-based; details: for spheroid growth, combination treatment: 96 h
Procedure: Non Small Cell Lung Cancer (NSCLC) cell lines H358 (catalog #CRL-5807) and H2030 (catalog #CRL-5914), and fibrosarcoma line HT-1080 (catalog […]) were obtained from the American Type Culture Collect (ATTC, Manassas, VA). Cells were grown in RPMI-1640 medium supplemented with 10% heat-inactivated fetal bovine serum and 1% Penicillin/Streptomycin/L-Glutamine (Invitrogen, Carlsbad, CA) at 37° C., 5% CO2, and 95% humidity and maintained at 50-80% confluency until use. 500-1000 cells were plated in 96-well ultra-low attachment plates (Corning, Glendale, AZ) with complete growth media at 80 μL/well and incubated overnight at 37° C., 5% CO2, and 95% humidity to form spheroids. The next day, serial dilutions of test compounds were prepared in complete growth media and 20 μL/well media containing compound titers was added to spheroids in triplicate. […] At the end of the incubation, spheroids were lysed with 100 μL/well CellTiter-Glo 3D Viability Assay (Promega, Madison, WI) and luminescence was detected using Synergy2 or equivalent reader (Biotek, Winooski, VT). Data was analyzed using GraphPad Prism software (GraphPad, San Diego, CA) to calculate IC50 values.

[2] = biological target: PERK oligomers (HEK-293 cells) (Homo sapiens (Human), UniProt Q9NZJ5); experiment: Detection of PERK oligomerization using NanoBRET; assay type: cell-based; details: HEK-293, 4 h, FIG. 2; read-out: stimulation of the formation of PERK oligomers EC50
Chain of PERK oligomers (HEK-293 cells) (Q9NZJ5 30-1116): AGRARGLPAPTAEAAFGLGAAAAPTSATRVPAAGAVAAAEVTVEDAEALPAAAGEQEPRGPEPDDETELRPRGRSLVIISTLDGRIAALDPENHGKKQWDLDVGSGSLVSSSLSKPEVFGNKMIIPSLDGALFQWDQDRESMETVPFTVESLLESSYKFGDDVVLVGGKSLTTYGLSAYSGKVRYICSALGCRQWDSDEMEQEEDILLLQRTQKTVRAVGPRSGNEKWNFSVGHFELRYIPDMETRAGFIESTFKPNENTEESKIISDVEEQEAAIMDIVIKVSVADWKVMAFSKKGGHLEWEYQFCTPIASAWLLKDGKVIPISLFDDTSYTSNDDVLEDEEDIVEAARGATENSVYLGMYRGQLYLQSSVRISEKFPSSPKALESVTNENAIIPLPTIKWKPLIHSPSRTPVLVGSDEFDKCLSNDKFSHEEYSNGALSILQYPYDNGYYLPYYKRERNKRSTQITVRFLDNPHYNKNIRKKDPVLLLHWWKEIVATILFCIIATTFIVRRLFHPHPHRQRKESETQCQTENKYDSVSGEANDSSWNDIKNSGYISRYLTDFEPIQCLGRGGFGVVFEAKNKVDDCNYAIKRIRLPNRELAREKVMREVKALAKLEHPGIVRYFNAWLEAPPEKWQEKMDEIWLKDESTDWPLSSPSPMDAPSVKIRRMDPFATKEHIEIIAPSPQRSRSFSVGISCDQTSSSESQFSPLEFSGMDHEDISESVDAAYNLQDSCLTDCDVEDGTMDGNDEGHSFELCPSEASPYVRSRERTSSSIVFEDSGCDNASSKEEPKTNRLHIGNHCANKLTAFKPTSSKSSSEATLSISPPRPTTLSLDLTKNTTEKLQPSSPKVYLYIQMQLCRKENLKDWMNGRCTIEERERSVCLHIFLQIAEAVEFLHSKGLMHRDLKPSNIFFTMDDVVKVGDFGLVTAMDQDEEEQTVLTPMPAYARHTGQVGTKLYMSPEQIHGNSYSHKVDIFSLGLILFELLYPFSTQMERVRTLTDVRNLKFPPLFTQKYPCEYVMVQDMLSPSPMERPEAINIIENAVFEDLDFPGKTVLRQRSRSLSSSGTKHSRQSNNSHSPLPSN
Chain of PERK oligomers (HEK-293 cells) (Q9NZJ5 30-1116): as above
Procedure: Constructs for BRET were built using the NanoBRET™ Flexi® PPI Starter System (Promega, Madison, WI). The full-length PERK ORF was obtained from Genscript (Piscataway, NJ). HEK-293 cells (catalog #CRL-1573) were obtained from the American Type Culture Collection (ATTC, Manassas, VA). Cells were grown in MEM medium supplemented with 10% heat-inactivated fetal bovine serum (Invitrogen, Carlsbad, CA) and 1% Penicillin/Streptomycin/L-Glutamine at 37° C., 5% CO2, and 95% humidity. For BRET assays, cells were seeded at a density of 40,000 cells/mL in culture medium in 6-well plates and allowed to attach and recover. Cells were transfected with C-terminally tagged PERK-NLuc and C-terminally tagged PERK-Halo using Lipofectamine LTX (Thermo, Waltham, MA) and allowed to express proteins overnight at 37° C., 5% CO2, and 95% humidity. Cells were then detached from culture dishes using 0.05% trypsin-EDTA, collected, and diluted in assay medium consisting of Opti-MEM® I Reduced Serum Medium supplemented with 4% FBS (Thermo) to 22,000 cells/mL. Cells were dispensed into 96-well cell culture plates and HaloTag® NanoBRET™ 618 Ligand (Promega) was added to a final concentration of 100 nM. […] Donor ([…]) and acceptor (618) emissions were measured on a Synergy Neo2 Multi-Mode Reader (BioTek, Winooski, VT) within 10 min of substrate addition. […]

H2030 spheroids = experiment: Spheroid Western blot assay, H2030; assay type: cell-based
Procedure: NSCLC cell lines H358 (catalog #CRL-5807) and H2030 (catalog #CRL-5914), and fibrosarcoma cell line HT-1080 (catalog […]) were obtained from the American Type Culture Collect (ATTC, Manassas, VA). Cells were grown in RPMI-1640 medium supplemented with 10% heat-inactivated fetal bovine serum and 1% Penicillin/Streptomycin/L-Glutamine (Invitrogen, Carlsbad, CA) at 37° C., 5% CO2, and 95% humidity and maintained at 50-80% confluency until use. Cells were plated at 500,000 cells/well in 24-well Elplasia plates (Corning, Glendale, AZ) with complete growth media at 1 mL/well and incubated overnight at 37° C., 5% CO2, and 95% humidity to form spheroids. The next day, serial dilutions of test compounds were prepared in complete growth media and 500 μL existing media was removed from each well and replaced with fresh media containing compound titers. Spheroids were then incubated with test compounds for 4 hours or 24 hours under the same conditions. […] Western blots were performed to quantify phospho-GCN2 (R&D Systems, Minneapolis, MN), ATF4, CHOP, cleaved PARP, cleaved Caspase 3 and 7, and beta-Actin (Cell Signaling Technology, Danvers, MA). […]

MV-4-11 xenograft = MV-4-11 xenograft efficacy model; assay type: in vivo, mice; details: 14 days of dosing
Procedure: The MV-4-11 xenograft model was performed in compliance with all the laws, regulations and guidelines of the National Institutes of Health (NIH) and with the approval of the Animal Care and Use Committee of Crown Bioscience (Taicang, China), an AAALAC accredited facility. Food and water was provided ad libitum. […] Female NOD/SCID (6-9 weeks old; Vital River Laboratories Research Models and Services (Beijing, China)) were inoculated subcutaneously right front flank region with five million cells in Dulbecco's Phosphate Buffered Saline:Matrigel (1:1), using a 27-gauge needle and syringe. When tumor burdens reached 150 mm 3 on average on day 7, mice were randomly assigned into groups such that the mean tumor burden for all groups was within 10% of the overall mean tumor burden for the study population. Groups were treated on days 7-21 as follows: vehicle control (dosed orally and IP to mimic combination groups) (n=10); Compound 2 dosed orally at 50 mg/kg/day of Compound 2 (n=10); Leunase (Kyowa Kirin, Japan) dosed IP at 1000 U/kg/day (n=10); Leunase (Kyowa Kirin, Japan) dosed IP at 1000 U/kg/day (n=10) and Compound 2 dosed orally at 50 mg/kg/day of Compound 2 (n=10). Tumor volume and body weight were measured three time per week. Tumor burden (mg) was estimated from caliper measurements by the formula: tumor burden (mg=mm 3)=(length×width 2)/2.

Compound: Cn1cc(-c2cccc(NS(=O)(=O)c3cc(Cl)cc(CO)c3Cl)c2F)c2c(N)ncnc21 [Example 2, N-(3-(4-amino-7-methyl-7H-pyrrolo[2,3-d]pyrimidin-5-yl)-2-fluorophenyl)-2,5-dichloro-3-(hydroxymethyl)benzenesulfonamide]
- cell regression, single agent ([1]; 5 days, FIG. 11A): 50%
- spheroid growth, combination treatment ([1]; with 3.3 nM sotorasib, FIG. 12A): greater spheroid regression compared to either single agent
- spheroid growth, combination treatment ([1]; with 3.7 nM trametinib, FIG. 12C): greater spheroid regression compared to either single agent
- EC50 [2]: 1.6 nM
- upregulation of ATF4 (Western blot quantification) (H2030 spheroids): up to 20 fold
- mean tumor growth inhibition (MV-4-11 xenograft; 50 mg/kg/day combined with Leunase): 54%
- effect on tumor growth, single agent (MV-4-11 xenograft; 50 mg/kg/day orally): no significant effect on tumor growth
